Source: US6734337B2, “Acetyl-coenzyme A carboxylase 2 as a target in the regulation of fat burning, fat accumulation, energy homeostasis and insulin action” (Research Development Foundation, priority 2000, dated 2004)

Key:
ACC = conditions: mice treated with fatty acid synthase inhibitors; cited from earlier work
[1] = system: soleus muscles of wild-type (Acc2+/+) mice; assay: [3H]palmitate oxidation in isolated soleus muscle of wild-type mice; type: cell-based, mouse; conditions: isoproterenol 3 mM, 30 min, 37° C.
Description: Where indicated, insulin (10 nM) or isoproterenol (3 mM) was added, and the vials were incubated at 37° C. under a humidified O2/CO2 (95/5%) atmosphere for 30 min. At the end of the incubation period, the [^3H]2O was separated from the labeled substrate and counted. To provide further evidence for the role of ACC2-synthesized malonyl-CoA as the regulator of fatty acid oxidation, fatty acid oxidation was investigated in the mouse soleus muscle, a […] muscle tissue responsive to hormonal regulation ([…]., Gamble, J., Patel, A., Kemp, […]., and Ruderman, W. B., J Biol Chem., 272:13255-13261 1997; Alam, N., and E. D. Saggerson. Biochem J., 334:233-41, 1998; […]., and […]. Proc Natl Acad Sci. USA 92, 4011-4015, 1995; […]., and […] Biol Chem. 272, 10669-10677, 1997; -Ha, J., J. K. Lee, […], and K.-H. Him. Proc Natl Acad Sci USA. 93:11466-11470, 1996; Rasmussen, B. B. and Wolfe, R. R., Ann. Rev. Natr. 19:463, 1999; and, Bressler, R. and […] Biol Chem. 236:1643-1651, 1961). […] Insulin is known to activate both ACC1 and ACC2 and, thereby, to induce fatty acid synthesis and inhibit fatty acid oxidation, respectively. […] Faseb J. 3:2250-2256, 1989; Thampy, K. G., and […]. Biol. Chem. 263, 6454-6458, 1988; […]., and […]. Biol. Chem. 265, 6330-6338, 1990; Mohamed, A. H., W. Y. Huang, W. Huang, K. V. Venkatachalam, and […] Biol Chem. 269:6859-6865. […]

[2] = system: soleus muscles of Acc2-/- mutant mice; assay: [3H]palmitate oxidation in isolated soleus muscle of Acc2-/- mutant mice; type: cell-based, mouse; conditions: 30 min, 37° C.
Description: Where indicated, insulin (10 nM) or isoproterenol (3 mM) was added, and the vials were incubated at 37° C. under a humidified O2/CO2 (95/5%) atmosphere for 30 min. At the end of the incubation period, the [^3H]2O was separated from the labeled substrate and counted. To provide further evidence for the role of ACC2-synthesized malonyl-CoA as the regulator of fatty acid oxidation, fatty acid oxidation was investigated in the mouse soleus muscle, a […] muscle tissue responsive to hormonal regulation ([…]., Gamble, J., Patel, A., Kemp, […]., and Ruderman, W. B., J Biol Chem., 272:13255-13261 1997; Alam, N., and E. D. Saggerson. Biochem J., 334:233-41, 1998; […]., and […]. Proc Natl Acad Sci. USA 92, 4011-4015, 1995; […]., and […] Biol Chem. 272, 10669-10677, 1997; -Ha, J., J. K. Lee, […], and K.-H. Him. Proc Natl Acad Sci USA. 93:11466-11470, 1996; Rasmussen, B. B. and Wolfe, R. R., Ann. Rev. Natr. 19:463, 1999; and, Bressler, R. and […] Biol Chem. 236:1643-1651, 1961). […] Insulin is known to activate both ACC1 and ACC2 and, thereby, to induce fatty acid synthesis and inhibit fatty acid oxidation, respectively. […] Faseb J. 3:2250-2256, 1989; Thampy, K. G., and […]. Biol. Chem. 263, 6454-6458, 1988; […]., and […]. Biol. Chem. 265, 6330-6338, 1990; Mohamed, A. H., W. Y. Huang, W. Huang, K. V. Venkatachalam, and […] Biol Chem. 269:6859-6865. 1994; and, Hardie, D. G. Prog Lipid Res. 28:117-146, 1989). The role of ACC2 in the regulation of mitochondrial oxidation of fatty acids was further confirmed by using isoproterenol, an analog of glucagon, which produces effects opposite of those of insulin. Adding isoproterenol to wild-type soleus muscle increased palmitate oxidation by 50% (FIG. 4), raising it to nearly the same level as that found in the mutant muscle cells. […] This additional increase may be due to factors independent of malonyl-CoA ([…]. Lopez-[…]. Bai, X. Luo, and M. E. Pape. Faseb J. 3:2250-2256, 1989).

CCCCCCCCCCCCCCOc1ccc(C(=O)O)o1 [5-(tetradeculoxy)-2 furoic acid]
effect on food uptake (ACC): increases food uptake

CC(C)NCC(O)c1ccc(O)c(O)c1 (centres unmarked) [isoproterenol]
increase of fatty acid (palmitate) oxidation [1]: 50%
effect on fatty acid oxidation ([2]; isoproterenol 3 mM): further increased
effect on fatty acid oxidation ([2]; isoproterenol 3 mM, listed as Isoproterenol): little effect

insulin
effect on fatty acid oxidation ([2]; insulin 10 nM): did not affect
